Test results from US20260258004A1, “CRYSTALLINE FORMS OF (6S)-5-[4'-FLUORO-2-(TRIFLUOROMETHYL)BIPHENYL-4-YL]-6-METHYL-3,6- DIHYDRO-2H-l,3,4-OXADIAZIN-2-ONE” (Bayer Aktiengesellschaft, priority 2022, published 2026).

Legend:
Format in all cases: physicochemical
[1] = Particle size distribution by laser diffraction (Malvern Panalytical Mastersizer 3000, Fraunhofer)
Method: The particle size distribution was measured by laser diffraction using the Malvern Panalytical Mastersizer 3000.
The samples are again taken from example 1.6 (probe 1) and example 1.5 (probe 2), the same as used in example 4.
The sample to be analyzed is dispersed in 1 drop of Tween 80 the sample is processed according to ISO13320.
Laser diffraction is an often-used method for determination the particle size of dispersed solid materials. A widened laser beam illuminates a cuvette which contains part of the particles. By diffraction on the particles a characteristic pattern can be mapped on the detector. The resulting diffraction image is the additive overlaying of diffraction images of all particles.
Besides the mentioned detector two additional detectors are mounted in order to detect diffraction light in forward direction (FA1,9), in wide angle (LA1,2) and in back direction (BS1,2). The turbidity of the sample is measured by an extinction sensor. This is necessary to ensure a low particle concentration which is necessary to avoid wrong results by multiple diffraction of light at several particles.
The cuvette used was a wet unit where the suspension is pumped in a closed circuit with a dispersing unit that ensures a separation of single particles by shear forces.
The measurement range of the Malvern 3000 covers a particle size from 1 mm (2 mm) down to 20 nm
The calculation of the particle size distribution from the diffraction patterns was done on basis of theory of Fraunhofer.
This assumption is valid for particle sizes of 10 to 50 μm and above. For smaller particles the light scattering of the particle itself due to optical transparency must be considered which is done in the Mie-theory (not used for our probes). Precondition of the application of the Mie-theory is the knowledge of the refractive and absorption index of the dispersed solids.
Q3 is the cumulative volume distribution, e.g. D50=Q(50%) indicates 50% of the volume part of the sample is smaller than particle size of 50 μm.
The particle size is expressed as an equivalent diameter used in the method recommended by the Malvern Analysis Program and as described in ISO13320.

[2] = Determination of bulk density during shear tests; conditions: during shear test, normal stress 1.5 kPa
Method: Because of the normal stress of 1.5 kPa applied on the top of the lid during the shear test the lid lowers into the shear cell and compresses the powder.
During the shear tests this lowering of the lid is measured and recorded. Since the volume of the bottom ring is known and weight of the sample measured before the beginning of the shear test the bulk density of the sample during the shear test is calculated
[formula] • with: • ρb,shear: Bulk density under shear • mges: total mass of shear cell including powder sample (w/o lid) • mcell: net mass of shear cell (w/o powder sample, w/o lid) • hc: height of the bottom ring • hl: lowering of lid • Acell: bottom area of shear cell
The calculation of the bulk density is done automatically with the evaluation software provided together with the shear tester.

[3] = Hygroscopicity classification applying the Pharmacopeia rules
From the text: The shear cell was fully filled with a sample of powder of the compound of formula (I) thereby preventing condensing the powder. Both samples, sample 1 and sample 2, were classified as non-hydroscopic applying the Pharmacopeia rules.

[4] = Particle size analysis of micronized product, laser diffraction (Sympatec HELOS/RODOS, dry dispersion); conditions: micronized twice, air jet mill; dry dispersion at 4 bar
From the text: The instrumental set-up for particle size analysis: • Laser diffraction pattern analyzer (Sympatec HELOS, H1970 & RODOS, R3:0.5/0.9 . . . 175 μm), 100 mm focal length, • Dry dispersion (RODOS) at 4 bar, • Mathematical model (LD 5.9.0.0)-Sympatec Code, basis Fraunhofer Diffraction

[5] = without ultrasound (US), listed as Probe 1

C[C@@H]1OC(=O)NN=C1c1ccc(-c2ccc(F)cc2)c(C(F)(F)F)c1 [polymorph A, (6S)-5-[4′-Fluoro-2-(trifluoromethyl)biphenyl-4-yl]-6-methyl-3,6-dihydro-2H-1,3,4-oxadiazin-2-one]
difference between Q3[50] of untreated sample and sample treated 300 s with ultrasound [1]: large
D(10) ([1]; 300 s US, listed as Probe 1): 4.02 μm
D(50) ([1]; 300 s US, listed as Probe 1): 44 μm
D(90) ([1]; 300 s US, listed as Probe 1): 128 μm
amount of fines ([1]; after US treatment of 300 s, compared to polymorph C): significantly larger
particle size distribution compared to polymorph C ([1]; after ultrasound treatment): significantly smaller particle size and broader distribution
Cumulative volume distribution Q ([1]; particle size D 0.01 μm, 300 s US): 0%
Cumulative volume distribution Q ([1]; particle size D 0.01 μm, without US): 0%
Cumulative volume distribution Q ([1]; particle size D 0.0114 μm, 300 s US): 0%
Cumulative volume distribution Q ([1]; particle size D 0.0114 μm, without US): 0%
Cumulative volume distribution Q ([1]; particle size D 0.0129 μm, 300 s US): 0%
Cumulative volume distribution Q ([1]; particle size D 0.0129 μm, without US): 0%
Cumulative volume distribution Q ([1]; particle size D 0.0147 μm, 300 s US): 0%
Cumulative volume distribution Q ([1]; particle size D 0.0147 μm, without US): 0%
Cumulative volume distribution Q ([1]; particle size D 0.0167 μm, 300 s US): 0%
Cumulative volume distribution Q ([1]; particle size D 0.0167 μm, without US): 0%
Cumulative volume distribution Q ([1]; particle size D 0.0189 μm, 300 s US): 0%
Cumulative volume distribution Q ([1]; particle size D 0.0189 μm, without US): 0%
Cumulative volume distribution Q ([1]; particle size D 0.0215 μm, 300 s US): 0%
Cumulative volume distribution Q ([1]; particle size D 0.0215 μm, without US): 0%
Cumulative volume distribution Q ([1]; particle size D 0.0244 μm, 300 s US): 0%
Cumulative volume distribution Q ([1]; particle size D 0.0244 μm, without US): 0%
Cumulative volume distribution Q ([1]; particle size D 0.0278 μm, 300 s US): 0%
Cumulative volume distribution Q ([1]; particle size D 0.0278 μm, without US): 0%
Cumulative volume distribution Q ([1]; particle size D 0.0315 μm, 300 s US): 0%
Cumulative volume distribution Q ([1]; particle size D 0.0315 μm, without US): 0%
Cumulative volume distribution Q ([1]; particle size D 0.0358 μm, 300 s US): 0%
Cumulative volume distribution Q ([1]; particle size D 0.0358 μm, without US): 0%
Cumulative volume distribution Q ([1]; particle size D 0.0407 μm, 300 s US): 0%
Cumulative volume distribution Q ([1]; particle size D 0.0407 μm, without US): 0%
Cumulative volume distribution Q ([1]; particle size D 756 μm, 300 s US): 100%
Cumulative volume distribution Q ([1]; particle size D 756 μm, without US, listed as Probe 1): 92.34%
Cumulative volume distribution Q ([1]; particle size D 859 μm, 300 s US): 100%
Cumulative volume distribution Q ([1]; particle size D 859 μm, without US, listed as Probe 1): 96.59%
Cumulative volume distribution Q ([1]; particle size D 976 μm, 300 s US): 100%
Cumulative volume distribution Q ([1]; particle size D 976 μm, without US, listed as Probe 1): 99.14%
Cumulative volume distribution Q ([1]; particle size D 1110 μm, 300 s US): 100%
Cumulative volume distribution Q ([1]; particle size D 1110 μm, without US): 100%
Cumulative volume distribution Q ([1]; particle size D 1260 μm, 300 s US): 100%
Cumulative volume distribution Q ([1]; particle size D 1260 μm, without US): 100%
Cumulative volume distribution Q ([1]; particle size D 1430 μm, 300 s US): 100%
Cumulative volume distribution Q ([1]; particle size D 1430 μm, without US): 100%
Cumulative volume distribution Q ([1]; particle size D 1630 μm, 300 s US): 100%
Cumulative volume distribution Q ([1]; particle size D 1630 μm, without US): 100%
Cumulative volume distribution Q ([1]; particle size D 1850 μm, 300 s US): 100%
Cumulative volume distribution Q ([1]; particle size D 1850 μm, without US): 100%
Cumulative volume distribution Q ([1]; particle size D 2100 μm, 300 s US): 100%
Cumulative volume distribution Q ([1]; particle size D 2100 μm, without US): 100%
Cumulative volume distribution Q ([1]; particle size D 2390 μm, 300 s US): 100%
Cumulative volume distribution Q ([1]; particle size D 2390 μm, without US): 100%
Cumulative volume distribution Q ([1]; particle size D 2710 μm, 300 s US): 100%
Cumulative volume distribution Q ([1]; particle size D 2710 μm, without US): 100%
Cumulative volume distribution Q ([1]; particle size D 3080 μm, 300 s US): 100%
Cumulative volume distribution Q ([1]; particle size D 3080 μm, without US): 100%
Cumulative volume distribution Q ([1]; particle size D 3500 μm, 300 s US): 100%
Cumulative volume distribution Q ([1]; particle size D 3500 μm, without US): 100%
D(10) [1, 5]: 165 μm
D(50) [1, 5]: 404 μm
D(90) [1, 5]: 720 μm
particle size distribution compared to polymorph C ([1]; without ultrasound treatment): significantly broader particle size distribution and larger particles
bulk density [2]: 270 kg/m^3
hygroscopicity classification [3]: non-hydroscopic

C[C@@H]1OC(=O)NN=C1c1ccc(-c2ccc(F)cc2)c(C(F)(F)F)c1 [micronized product, (6S)-5-[4′-fluoro-2-(trifluoromethyl)[biphenyl]-4-yl]-6-methyl-3,6-dihydro-2H-1,3,4-oxadiazin-2-one]
Particle Size distribution X10 [4]: 1.2 μm
Particle Size distribution X50 [4]: 4 μm
Particle Size distribution X90 [4]: 10 μm
